Reference: BindingDB's records for patent US11518779 (Victoria Link, 2022)

Target: DNA (cytosine-5)-methyltransferase 1 (Homo sapiens, UniProt P26358)
Experiment: DNMT1 Inhibition Assay
Method: The DNMT1 assays were carried to determine the IC50 with transition state analogs. The reaction (100 μL) containing 50 mM Tris-HCl pH 8.0, 100 mM KCl, 50 ug/mL BSA, 2 mM DTT, 1 μM freshly prepared [Me-3H]-SAM, 1 μM 26 bp hemimethylated DNA substrate and varying concentrations of each inhibitor ([…]), incubated at 37° C. with 100 nM DNMT1. The reaction fractions (50 μL) were taken at 2 hours. The methylated DNA was purified by using Micro Bio-spin P-30 columns (Bio-Rad). Purified samples were mixed with 10 mL of scintillation liquid (PerkinElmer), and counted for radioactivity in a Tricarb 2910 TR scintillation counter (PerkinElmer). The values obtained in the absence of DNMT1 in the reaction were used as controls. The assay data were analyzed using GraphPad Prism for IC50 calculations.

Chain of DNA (cytosine-5)-methyltransferase 1 (P26358 whole entry): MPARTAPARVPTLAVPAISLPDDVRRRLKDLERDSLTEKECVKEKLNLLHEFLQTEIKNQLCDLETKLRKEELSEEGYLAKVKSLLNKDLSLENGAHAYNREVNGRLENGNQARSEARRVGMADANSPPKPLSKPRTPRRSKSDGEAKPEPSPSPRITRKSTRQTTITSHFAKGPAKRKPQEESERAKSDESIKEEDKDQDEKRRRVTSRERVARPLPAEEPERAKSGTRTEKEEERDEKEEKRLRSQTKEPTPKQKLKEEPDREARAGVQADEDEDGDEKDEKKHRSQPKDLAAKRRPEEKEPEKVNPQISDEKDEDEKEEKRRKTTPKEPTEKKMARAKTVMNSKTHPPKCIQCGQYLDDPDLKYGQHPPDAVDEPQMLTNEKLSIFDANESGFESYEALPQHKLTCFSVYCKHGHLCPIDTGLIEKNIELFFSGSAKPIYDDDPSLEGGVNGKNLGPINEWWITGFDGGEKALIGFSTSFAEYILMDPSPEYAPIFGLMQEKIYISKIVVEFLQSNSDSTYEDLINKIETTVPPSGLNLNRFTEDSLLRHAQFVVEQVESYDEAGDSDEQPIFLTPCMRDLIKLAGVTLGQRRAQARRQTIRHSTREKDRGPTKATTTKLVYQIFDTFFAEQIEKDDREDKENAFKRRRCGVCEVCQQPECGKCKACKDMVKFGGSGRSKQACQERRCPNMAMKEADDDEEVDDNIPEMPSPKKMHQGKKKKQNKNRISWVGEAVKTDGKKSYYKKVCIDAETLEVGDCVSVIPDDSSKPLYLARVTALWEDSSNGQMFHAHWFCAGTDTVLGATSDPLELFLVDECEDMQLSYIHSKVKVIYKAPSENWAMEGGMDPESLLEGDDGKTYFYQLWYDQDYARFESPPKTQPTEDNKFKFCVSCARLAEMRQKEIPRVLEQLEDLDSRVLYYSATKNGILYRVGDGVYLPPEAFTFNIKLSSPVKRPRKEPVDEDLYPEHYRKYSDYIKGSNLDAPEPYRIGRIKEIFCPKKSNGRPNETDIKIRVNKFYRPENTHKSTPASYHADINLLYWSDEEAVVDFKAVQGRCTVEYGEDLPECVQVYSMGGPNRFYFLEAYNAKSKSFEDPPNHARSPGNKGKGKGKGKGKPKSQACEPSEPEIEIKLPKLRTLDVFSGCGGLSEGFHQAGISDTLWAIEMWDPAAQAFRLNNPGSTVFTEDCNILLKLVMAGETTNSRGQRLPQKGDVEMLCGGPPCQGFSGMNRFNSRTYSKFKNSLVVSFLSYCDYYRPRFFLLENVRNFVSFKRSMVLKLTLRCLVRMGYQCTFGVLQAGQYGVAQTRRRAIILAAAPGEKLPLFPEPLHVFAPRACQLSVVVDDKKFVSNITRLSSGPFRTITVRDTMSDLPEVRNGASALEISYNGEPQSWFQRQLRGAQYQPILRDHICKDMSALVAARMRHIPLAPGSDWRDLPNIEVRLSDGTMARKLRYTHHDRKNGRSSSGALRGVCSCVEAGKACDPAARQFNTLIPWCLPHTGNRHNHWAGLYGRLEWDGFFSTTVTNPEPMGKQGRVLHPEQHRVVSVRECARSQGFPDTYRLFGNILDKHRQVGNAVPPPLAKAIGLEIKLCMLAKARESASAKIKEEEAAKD

IC50 | Compound
3600 nM | Nc1nc(=O)n([C@H]2C[C@H](O)[C@@H](CO)O2)cc1CSCCC[C@H]1O[C@@H](n2cnc3c(N)ncnc32)[C@H](O)[C@@H]1O [US11518779, Compound 21]
1100 nM | Nc1nc(=O)n([C@H]2C[C@H](O)[C@@H](CO)O2)cc1CNC[C@H]1O[C@@H](n2cnc3c(N)ncnc32)[C@H](O)[C@@H]1O [US11518779, Compound 10]
